Laboratory results from publication PMC3763859 (ACS medicinal chemistry letters, 2013).

System: SK-BR-3 cells
Assay: synergy studies with c-Src inhibitor 1 in SK-BR-3
Type: cell-based
Details: 2 μM 1, 10 nM panobinostat

Cc1[nH]c2ccccc2c1CCNCc1ccc(/C=C/C(=O)NO)cc1 [panobinostat]
synergy with c-Src inhibitor 1: highly synergistic
